The source made the active and inactive calls. The calls are words filed in the database; no cut-off is given here.
Legend:
[1] = Inhibition of phosphatidyl serine liposome-stimulated sheep brain dynamin 1 GTPase activity assessed as reduction orthophosphate release using GTP as substrate after 30 mins by malachite green reagent based colorimetric assay; parameters: species or system Ovis aries; conditions: read-out: IC50
Ovis aries [2] = species: Ovis aries; assay: Inhibition of phosphatidyl serine liposome-stimulated sheep brain dynamin 1 GTPase activity assessed as reduction orthophosphate release at 300 uM using GTP as substrate after 30 mins by malachite green reagent based colorimetric assay relative to control
[3] = target: T1, 5-hydroxytryptamine receptor 2B (Homo sapiens, UniProt P41595); assay: Displacement of [125I](+/-)DOI from human recombinant 5-HT2B receptor expressed in CHO cells after 60 mins by scintillation counting; type: cell-based
SW480 [4] = assay: Growth inhibition of human SW480 cells after 72 hrs by MTT assay; type: functional; conditions: SW480, 72 h
HT-29 [5] = assay: Growth inhibition of human HT-29 cells after 72 hrs by MTT assay; type: functional; conditions: HT-29, 72 h
[6] = Growth inhibition of human SMA cells after 72 hrs by MTT assay; type: functional
MCF7 [7] = assay: Growth inhibition of human MCF7 cells after 72 hrs by MTT assay; type: functional; conditions: MCF7, 72 h
BE(2)-C [8] = assay: Growth inhibition of human BE(2)-C cells after 72 hrs by MTT assay; type: functional
[9] = Growth inhibition of human SJ-G2 cells after 72 hrs by MTT assay; type: functional; conditions: SJ-G2, 72 h
MIA PaCa-2 [10] = assay: Growth inhibition of human MIAPaCa2 cells after 72 hrs by MTT assay; type: functional; conditions: MIA PaCa-2, 72 h
A2780 [11] = assay: Growth inhibition of human A2780 cells after 72 hrs by MTT assay; type: functional; conditions: A2780, 72 h
A-431 [12] = assay: Growth inhibition of human A431 cells after 72 hrs by MTT assay; type: functional; conditions: A-431, 72 h
NCI-H460 [13] = assay: Growth inhibition of human NCI-H460 cells after 72 hrs by MTT assay; type: functional; conditions: NCI-H460, 72 h
[14] = Growth inhibition of human U87 cells after 72 hrs by MTT assay; type: functional, U-87MG ATCC; conditions: U-87 MG
DU-145 [15] = assay: Growth inhibition of human DU145 cells after 72 hrs by MTT assay; type: functional; conditions: DU-145, 72 h
[16] = target: D(2) dopamine receptor (Homo sapiens) (UniProt P14416); assay: Displacement of [3H]methyl-spiperone from human recombinant D2S receptor in HEK293 cells at 10 uM after 60 mins by scintillation counting relative to control; type: cell-based; conditions: values are per cent of control
[17] = target: Histamine H1 receptor (Homo sapiens) (UniProt P35367); assay: Displacement of [3H]pyrilamine from human recombinant histamine H1 receptor in HEK293 cells at 10 uM after 60 mins by scintillation counting relative to control; type: cell-based; conditions: values are per cent of control
[18] = target: Histamine H2 receptor (Homo sapiens) (UniProt P25021); assay: Displacement of [125I]APT from human recombinant histamine H2 receptor expressed in CHO cells at 10 uM after 120 mins by scintillation counting relative to control; type: cell-based; conditions: values are per cent of control
[19] = target: Melanocortin receptor 4 (Homo sapiens) (UniProt P32245); assay: Inhibition of human recombinant melanocortin 4 receptor expressed in CHO cells at 10 uM relative to control; type: cell-based; conditions: values are per cent of control
[20] = target: Muscarinic acetylcholine receptor M1 (Homo sapiens) (UniProt P11229); assay: Displacement of [3H]pirenzepine from human recombinant Muscarinic acetylcholine receptor M1 expressed in CHO cells at 10 uM after 60 mins by scintillation counting relative to control; type: cell-based; conditions: values are per cent of control
[21] = target: Muscarinic acetylcholine receptor M3 (Homo sapiens) (UniProt P20309); assay: Displacement of [3H]4-DAMP from human recombinant Muscarinic acetylcholine receptor M3 expressed in CHO cells at 10 uM after 60 mins by scintillation counting relative to control; type: cell-based; conditions: values are per cent of control
[22] = target: Substance-K receptor (Homo sapiens) (UniProt P21452); assay: Displacement of [125I]NKA from human recombinant tachykinin NK2 receptor expressed in CHO cells at 10 uM after 60 mins by scintillation counting relative to control; type: cell-based; conditions: values are per cent of control
[23] = target: Kappa-type opioid receptor (Rattus norvegicus) (UniProt P34975); assay: Displacement of [3H]U 69593 from rat recombinant kappa opioid receptor expressed in CHO cells at 10 uM after 60 mins by scintillation counting relative to control; type: cell-based; conditions: values are per cent of control
[24] = target: 5-hydroxytryptamine receptor 2A (Homo sapiens) (UniProt P28223); assay: Displacement of [3H]ketanserin from human recombinant 5-HT2A receptor in HEK293 cells at 10 uM after 60 mins by scintillation counting relative to control; type: cell-based; conditions: values are per cent of control
[25] = target: T1, 5-hydroxytryptamine receptor 2B; assay: Displacement of [125I](+/-)DOI from human recombinant 5-HT2B receptor expressed in CHO cells at 10 uM after 60 mins by scintillation counting relative to control; type: cell-based; conditions: values are per cent of control
[26] = target: 5-hydroxytryptamine receptor 5A (Homo sapiens) (UniProt P47898); assay: Displacement of [3H]LSD from human recombinant 5-HT5a receptor in HEK293 cells at 10 uM after 120 mins by scintillation counting relative to control; type: cell-based; conditions: values are per cent of control
[27] = target: 5-hydroxytryptamine receptor 6 (Homo sapiens) (UniProt P50406); assay: Displacement of [3H]LSD from human recombinant 5-HT6 receptor expressed in CHO cells at 10 uM after 120 mins by scintillation counting relative to control; type: cell-based; conditions: values are per cent of control
[28] = target: 5-hydroxytryptamine receptor 7 (Homo sapiens) (UniProt P34969); assay: Displacement of [3H]LSD from human recombinant 5-HT7 receptor expressed in CHO cells at 10 uM after 120 mins by scintillation counting relative to control; type: cell-based; conditions: values are per cent of control
[29] = target: Sodium-dependent noradrenaline transporter (Homo sapiens) (UniProt P23975); assay: Displacement of [3H]nisoxetine from human recombinant norepinephrine transporter expressed in CHO cells at 10 uM after 120 mins by scintillation counting relative to control; type: cell-based; conditions: values are per cent of control
[30] = target: Sodium-dependent dopamine transporter (Homo sapiens) (UniProt Q01959); assay: Displacement of [3H]BTCP from human recombinant dopamine transporter expressed in CHO cells at 10 uM after 120 mins by scintillation counting relative to control; type: cell-based; conditions: values are per cent of control
Ovis aries [31] = species: Ovis aries; assay: Inhibition of phosphatidyl serine liposome-stimulated sheep brain dynamin 1 GTPase activity assessed as reduction orthophosphate release up to 300 uM using GTP as substrate after 30 mins by malachite green reagent based colorimetric assay relative to control
SW480 [32] = assay: Growth inhibition of human SW480 cells assessed as cell death at 25 uM after 72 hrs by MTT assay relative to control; type: functional; parameters: scale not given: the % may be the effect or the level left
HT-29 [33] = assay: Growth inhibition of human HT-29 cells assessed as cell death at 25 uM after 72 hrs by MTT assay relative to control; type: functional; parameters: scale not given: the % may be the effect or the level left
[34] = Growth inhibition of human SMA cells assessed as cell death at 25 uM after 72 hrs by MTT assay relative to control; type: functional; parameters: scale not given: the % may be the effect or the level left
MCF7 [35] = assay: Growth inhibition of human MCF7 cells assessed as cell death at 25 uM after 72 hrs by MTT assay relative to control; type: functional; parameters: scale not given: the % may be the effect or the level left
BE(2)-C [36] = assay: Growth inhibition of human BE(2)-C cells assessed as cell death at 25 uM after 72 hrs by MTT assay relative to control; type: functional; parameters: scale not given: the % may be the effect or the level left
[37] = Growth inhibition of human SJ-G2 cells assessed as cell death at 25 uM after 72 hrs by MTT assay relative to control; type: functional; parameters: scale not given: the % may be the effect or the level left
MIA PaCa-2 [38] = assay: Growth inhibition of human MIAPaCa2 cells assessed as cell death at 25 uM after 72 hrs by MTT assay relative to control; type: functional; parameters: scale not given: the % may be the effect or the level left
A2780 [39] = assay: Growth inhibition of human A2780 cells assessed as cell death at 25 uM after 72 hrs by MTT assay relative to control; type: functional; parameters: scale not given: the % may be the effect or the level left
A-431 [40] = assay: Growth inhibition of human A431 cells assessed as cell death at 25 uM after 72 hrs by MTT assay relative to control; type: functional; parameters: scale not given: the % may be the effect or the level left
NCI-H460 [41] = assay: Growth inhibition of human NCI-H460 cells assessed as cell death at 25 uM after 72 hrs by MTT assay relative to control; type: functional; parameters: scale not given: the % may be the effect or the level left
[42] = Growth inhibition of human U87 cells assessed as cell death at 25 uM after 72 hrs by MTT assay relative to control; type: functional, U-87MG ATCC; parameters: scale not given: the % may be the effect or the level left
DU-145 [43] = assay: Growth inhibition of human DU145 cells assessed as cell death at 25 uM after 72 hrs by MTT assay relative to control; type: functional; parameters: scale not given: the % may be the effect or the level left

T1 sequence (P41595 whole entry): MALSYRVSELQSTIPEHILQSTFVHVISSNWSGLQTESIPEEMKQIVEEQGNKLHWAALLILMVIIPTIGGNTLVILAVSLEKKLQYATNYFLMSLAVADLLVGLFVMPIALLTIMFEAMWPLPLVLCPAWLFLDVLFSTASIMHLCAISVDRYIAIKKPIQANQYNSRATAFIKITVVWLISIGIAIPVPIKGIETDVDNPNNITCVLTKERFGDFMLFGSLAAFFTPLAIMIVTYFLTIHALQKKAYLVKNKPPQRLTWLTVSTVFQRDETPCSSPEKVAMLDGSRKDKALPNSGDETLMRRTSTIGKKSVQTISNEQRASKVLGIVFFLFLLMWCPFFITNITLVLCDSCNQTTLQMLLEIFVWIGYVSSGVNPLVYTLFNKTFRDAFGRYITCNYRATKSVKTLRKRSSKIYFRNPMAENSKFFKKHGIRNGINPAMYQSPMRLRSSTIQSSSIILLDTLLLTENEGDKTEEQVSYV
D(2) dopamine receptor (Homo sapiens), sequence (P14416 whole entry): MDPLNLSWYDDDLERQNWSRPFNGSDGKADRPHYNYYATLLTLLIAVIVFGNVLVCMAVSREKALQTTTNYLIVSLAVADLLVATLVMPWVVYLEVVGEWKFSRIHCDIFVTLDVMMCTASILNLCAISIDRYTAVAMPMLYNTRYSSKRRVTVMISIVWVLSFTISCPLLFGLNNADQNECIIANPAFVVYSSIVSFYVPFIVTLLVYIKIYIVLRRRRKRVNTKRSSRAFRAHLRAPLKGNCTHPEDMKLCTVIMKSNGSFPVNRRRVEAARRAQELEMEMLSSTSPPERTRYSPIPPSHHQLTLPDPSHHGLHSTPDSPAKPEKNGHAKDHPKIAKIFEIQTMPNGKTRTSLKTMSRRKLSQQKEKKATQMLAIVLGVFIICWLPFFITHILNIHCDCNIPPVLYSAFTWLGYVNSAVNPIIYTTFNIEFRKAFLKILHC
Sodium-dependent noradrenaline transporter (Homo sapiens), sequence (P23975 whole entry): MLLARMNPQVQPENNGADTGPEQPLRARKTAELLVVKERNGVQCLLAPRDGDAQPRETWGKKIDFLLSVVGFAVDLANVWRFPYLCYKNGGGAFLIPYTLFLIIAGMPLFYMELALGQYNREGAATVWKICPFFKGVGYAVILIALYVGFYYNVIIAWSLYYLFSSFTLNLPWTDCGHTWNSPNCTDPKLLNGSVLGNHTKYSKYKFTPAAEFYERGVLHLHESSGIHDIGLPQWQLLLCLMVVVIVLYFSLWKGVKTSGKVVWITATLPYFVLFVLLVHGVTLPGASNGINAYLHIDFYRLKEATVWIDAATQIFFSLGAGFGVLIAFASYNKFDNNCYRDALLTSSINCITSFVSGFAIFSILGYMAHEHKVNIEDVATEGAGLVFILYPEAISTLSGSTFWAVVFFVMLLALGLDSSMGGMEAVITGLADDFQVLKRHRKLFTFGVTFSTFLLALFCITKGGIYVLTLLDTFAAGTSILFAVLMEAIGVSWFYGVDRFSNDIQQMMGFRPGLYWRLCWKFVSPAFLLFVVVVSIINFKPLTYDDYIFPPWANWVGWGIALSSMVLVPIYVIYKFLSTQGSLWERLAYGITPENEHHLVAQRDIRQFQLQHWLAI
Sodium-dependent dopamine transporter (Homo sapiens), sequence (Q01959 whole entry): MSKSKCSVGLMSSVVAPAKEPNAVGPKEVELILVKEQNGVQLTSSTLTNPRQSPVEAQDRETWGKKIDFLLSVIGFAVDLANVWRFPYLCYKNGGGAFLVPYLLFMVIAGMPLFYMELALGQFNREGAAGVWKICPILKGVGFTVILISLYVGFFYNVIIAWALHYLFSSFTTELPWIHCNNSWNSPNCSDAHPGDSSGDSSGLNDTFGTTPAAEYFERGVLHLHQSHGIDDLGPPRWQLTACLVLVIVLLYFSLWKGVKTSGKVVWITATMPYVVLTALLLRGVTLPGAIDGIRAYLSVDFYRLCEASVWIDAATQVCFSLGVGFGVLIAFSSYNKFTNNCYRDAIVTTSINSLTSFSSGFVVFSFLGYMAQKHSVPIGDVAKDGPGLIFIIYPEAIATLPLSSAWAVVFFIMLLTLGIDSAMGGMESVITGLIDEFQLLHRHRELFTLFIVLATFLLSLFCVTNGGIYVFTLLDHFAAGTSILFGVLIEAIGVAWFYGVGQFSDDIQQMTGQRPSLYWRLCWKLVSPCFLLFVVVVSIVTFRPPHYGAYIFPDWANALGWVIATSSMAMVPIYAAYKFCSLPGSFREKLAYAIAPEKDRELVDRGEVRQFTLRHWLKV
Melanocortin receptor 4 (Homo sapiens), sequence (P32245 whole entry): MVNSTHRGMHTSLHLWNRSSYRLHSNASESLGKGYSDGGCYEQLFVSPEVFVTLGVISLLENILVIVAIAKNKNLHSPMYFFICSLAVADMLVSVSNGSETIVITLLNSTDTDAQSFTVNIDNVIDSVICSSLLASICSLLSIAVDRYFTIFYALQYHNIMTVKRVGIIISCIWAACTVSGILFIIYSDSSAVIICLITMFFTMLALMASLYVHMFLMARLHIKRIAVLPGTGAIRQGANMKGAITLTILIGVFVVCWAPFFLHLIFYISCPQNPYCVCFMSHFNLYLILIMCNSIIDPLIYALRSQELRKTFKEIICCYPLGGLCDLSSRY
5-hydroxytryptamine receptor 5A (Homo sapiens), sequence (P47898 whole entry): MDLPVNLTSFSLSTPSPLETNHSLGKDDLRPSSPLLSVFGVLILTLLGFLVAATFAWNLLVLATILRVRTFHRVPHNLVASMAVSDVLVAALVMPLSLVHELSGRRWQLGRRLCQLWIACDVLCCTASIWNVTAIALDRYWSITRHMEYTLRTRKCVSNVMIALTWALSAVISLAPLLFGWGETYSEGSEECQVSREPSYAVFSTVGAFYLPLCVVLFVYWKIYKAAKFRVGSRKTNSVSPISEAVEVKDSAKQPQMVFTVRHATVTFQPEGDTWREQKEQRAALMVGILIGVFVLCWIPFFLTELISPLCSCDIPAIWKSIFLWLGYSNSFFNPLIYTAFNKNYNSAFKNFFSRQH
5-hydroxytryptamine receptor 6 (Homo sapiens), sequence (P50406 whole entry): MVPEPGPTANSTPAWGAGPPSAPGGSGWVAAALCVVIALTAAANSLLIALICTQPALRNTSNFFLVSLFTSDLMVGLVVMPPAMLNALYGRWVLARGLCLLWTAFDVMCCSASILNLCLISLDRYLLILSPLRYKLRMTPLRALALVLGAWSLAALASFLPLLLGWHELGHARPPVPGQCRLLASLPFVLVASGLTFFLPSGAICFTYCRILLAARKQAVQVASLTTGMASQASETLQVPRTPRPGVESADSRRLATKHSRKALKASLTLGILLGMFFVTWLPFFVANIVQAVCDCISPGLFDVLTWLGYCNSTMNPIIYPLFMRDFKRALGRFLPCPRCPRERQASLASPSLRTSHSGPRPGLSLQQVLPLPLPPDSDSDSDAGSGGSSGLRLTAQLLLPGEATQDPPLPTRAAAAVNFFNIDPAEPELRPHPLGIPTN
Muscarinic acetylcholine receptor M3 (Homo sapiens), sequence (P20309 whole entry, looked up): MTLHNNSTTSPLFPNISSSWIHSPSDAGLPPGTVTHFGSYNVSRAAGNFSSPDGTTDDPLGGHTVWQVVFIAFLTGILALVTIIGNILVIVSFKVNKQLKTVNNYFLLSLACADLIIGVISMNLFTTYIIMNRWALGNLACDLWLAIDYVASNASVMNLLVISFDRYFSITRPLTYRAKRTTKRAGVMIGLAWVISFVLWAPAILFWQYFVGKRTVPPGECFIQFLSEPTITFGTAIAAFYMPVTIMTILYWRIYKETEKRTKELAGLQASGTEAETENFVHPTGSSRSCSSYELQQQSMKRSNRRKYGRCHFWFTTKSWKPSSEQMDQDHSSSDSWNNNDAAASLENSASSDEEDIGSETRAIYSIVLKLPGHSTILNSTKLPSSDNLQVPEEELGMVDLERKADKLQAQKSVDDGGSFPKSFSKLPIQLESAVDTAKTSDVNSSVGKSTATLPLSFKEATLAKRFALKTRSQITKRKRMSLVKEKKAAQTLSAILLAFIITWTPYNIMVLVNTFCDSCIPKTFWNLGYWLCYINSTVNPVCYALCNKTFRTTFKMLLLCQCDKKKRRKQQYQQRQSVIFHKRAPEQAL
Muscarinic acetylcholine receptor M1 (Homo sapiens), sequence (P11229 whole entry): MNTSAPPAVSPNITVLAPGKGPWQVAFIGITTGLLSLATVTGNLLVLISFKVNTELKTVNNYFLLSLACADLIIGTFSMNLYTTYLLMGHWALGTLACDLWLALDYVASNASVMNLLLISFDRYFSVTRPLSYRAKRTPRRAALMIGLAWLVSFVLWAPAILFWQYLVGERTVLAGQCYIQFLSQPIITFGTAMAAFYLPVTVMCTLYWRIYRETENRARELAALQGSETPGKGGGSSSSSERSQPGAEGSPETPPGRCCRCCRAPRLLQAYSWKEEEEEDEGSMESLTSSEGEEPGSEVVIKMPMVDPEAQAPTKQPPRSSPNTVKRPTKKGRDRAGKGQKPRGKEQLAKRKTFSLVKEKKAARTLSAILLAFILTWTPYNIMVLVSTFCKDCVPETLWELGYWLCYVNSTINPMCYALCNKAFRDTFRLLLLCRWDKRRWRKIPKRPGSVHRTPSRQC
Histamine H1 receptor (Homo sapiens), sequence (P35367 whole entry): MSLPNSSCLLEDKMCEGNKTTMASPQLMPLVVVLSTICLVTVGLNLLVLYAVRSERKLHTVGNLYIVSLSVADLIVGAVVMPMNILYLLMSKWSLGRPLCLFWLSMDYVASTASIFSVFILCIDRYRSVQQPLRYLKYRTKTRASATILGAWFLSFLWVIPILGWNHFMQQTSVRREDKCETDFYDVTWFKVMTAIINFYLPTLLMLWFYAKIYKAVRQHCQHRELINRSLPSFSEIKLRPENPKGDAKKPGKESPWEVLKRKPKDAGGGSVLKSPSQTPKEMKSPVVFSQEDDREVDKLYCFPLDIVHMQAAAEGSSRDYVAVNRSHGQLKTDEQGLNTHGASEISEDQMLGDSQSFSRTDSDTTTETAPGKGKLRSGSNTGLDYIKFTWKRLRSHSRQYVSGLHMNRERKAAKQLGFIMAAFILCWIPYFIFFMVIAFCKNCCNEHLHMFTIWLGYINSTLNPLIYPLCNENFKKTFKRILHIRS

CCCCNc1cc(C)nc(NCCN(C)C)n1
IC50 [1]: > 50000 nM | inhibition (Ovis aries [2]): > 50%

CCNc1cc(C)nc(NCCN(C)C)n1
inhibition (Ovis aries [2]): inactive

CCC(C)Nc1nc(C)cc(NCCN(C)C)n1 (stereo unspecified)
IC50 [1]: > 50000 nM | inhibition (Ovis aries [2]): > 50%

CCCCNc1nc(C)cc(NCCN(C)C)n1
inhibition (Ovis aries [2]): inactive

COc1cc(CC(C)N)c(OC)cc1I (racemic)
Ki [3]: 1.6 nM

CCCNc1nc(C)cc(NCCN(C)C)n1
inhibition (Ovis aries [2]): inactive

Cc1cc(NCc2ccccc2)nc(NCCN(C)C)n1
IC50 [1]: > 50000 nM | inhibition (Ovis aries [2]): > 50%

Cc1cc(NCCN(C)C)nc(NCc2ccccc2)n1
IC50 [1]: > 50000 nM | inhibition (Ovis aries [2]): > 50%

CCCCCCCCCCCCNc1nc(C)cc(NCCN(C)C)n1
IC50 [1]: 1400 nM | GI50 (SW480 [4]): 800 nM | GI50 (HT-29 [5]): 1400 nM | GI50 [6]: 1300 nM | GI50 (MCF7 [7]): 1500 nM | GI50 (BE(2)-C [8]): 1500 nM | GI50 [9]: 1500 nM | GI50 (MIA PaCa-2 [10]): 1500 nM | GI50 (A2780 [11]): 1800 nM | GI50 (A-431 [12]): 1700 nM | GI50 (NCI-H460 [13]): 2500 nM | GI50 [14]: 1500 nM | GI50 (DU-145 [15]): 1900 nM | residual binding, % of control [16]: 99% | residual binding, % of control [17]: 102% | residual binding, % of control [18]: 106% | residual binding, % of control [19]: 96% | residual binding, % of control [20]: 91% | residual binding, % of control [21]: 104% | residual binding, % of control [22]: 93% | residual binding, % of control [23]: 97% | residual binding, % of control [24]: 93% | residual binding, % of control [25]: 94% | residual binding, % of control [26]: 99% | residual binding, % of control [27]: 91% | residual binding, % of control [28]: 98% | residual binding, % of control [29]: 96% | residual binding, % of control [30]: 105%

CCNc1nc(C)cc(NCCN(C)C)n1
inhibition (Ovis aries [2]): inactive

CCCNc1cc(C)nc(NCCN(C)C)n1
inhibition (Ovis aries [2]): inactive

CCC(C)Nc1cc(C)nc(NCCN(C)C)n1 (stereo unspecified)
inhibition (Ovis aries [2]): inactive

CCCCCCCCCCCCCCNc1nc(C)cc(Cl)n1
inhibition (Ovis aries [31]): inactive

Cc1cc(Cl)nc(N2CCN(C)CC2)n1
inhibition (Ovis aries [31]): inactive

Cc1cc(NCCCN(C)C)nc(Cl)n1
inhibition (Ovis aries [31]): inactive

COc1ccc(CNc2cc(C)nc(Cl)n2)cc1
inhibition (Ovis aries [31]): inactive

Cc1cc(NCCN)nc(Cl)n1
inhibition (Ovis aries [31]): inactive

CCNc1cc(C)nc(Cl)n1
inhibition (Ovis aries [31]): inactive

CCCCCCCCCCNc1cc(C)nc(Cl)n1
inhibition (Ovis aries [31]): inactive

Cc1cc(N(C)C)nc(Cl)n1
inhibition (Ovis aries [31]): inactive

Cc1cc(NCCNC(=O)OC(C)(C)C)nc(Cl)n1
inhibition (Ovis aries [31]): inactive

CCCCCCCCCCCCNc1nc(C)cc(Cl)n1
IC50 [1]: > 300000 nM | Activity (SW480 [32]): 37% | Activity (HT-29 [33]): 56% | Activity [34]: 65% | Activity (MCF7 [35]): 53% | Activity (BE(2)-C [36]): 46% | Activity [37]: 25% | Activity (MIA PaCa-2 [38]): 42% | Activity (A2780 [39]): 63% | Activity (A-431 [40]): 25% | Activity (NCI-H460 [41]): 21% | Activity [42]: 21% | Activity (DU-145 [43]): 42%

Cc1cc(N2CCN(C)CC2)nc(Cl)n1
inhibition (Ovis aries [31]): inactive
